{
  "source": "ChEMBL document CHEMBL4765285",
  "about": "“Discovery of orally active indirubin-3'-oxime derivatives as potent type 1 FLT3 inhibitors for acute myeloid leukemia” (Eur J Med Chem, 2020)",
  "key": {"[1]": {"target": "Receptor-type tyrosine-protein kinase FLT3 (Homo sapiens, UniProt P36888, ITD)", "test": "Binding affinity to human FLT3 ITD mutant in presence of ATP by Lanthascreen Eu kinase binding assay"}, "[2]": {"test": "Acute toxicity in ICR male mouse assessed as approximate lethal dose", "details": "in vivo, read-out: ALD50"}, "[3]": {"target": "T1, Receptor-type tyrosine-protein kinase FLT3 (Homo sapiens, UniProt P36888)", "T1 sequence (P36888 whole entry)": "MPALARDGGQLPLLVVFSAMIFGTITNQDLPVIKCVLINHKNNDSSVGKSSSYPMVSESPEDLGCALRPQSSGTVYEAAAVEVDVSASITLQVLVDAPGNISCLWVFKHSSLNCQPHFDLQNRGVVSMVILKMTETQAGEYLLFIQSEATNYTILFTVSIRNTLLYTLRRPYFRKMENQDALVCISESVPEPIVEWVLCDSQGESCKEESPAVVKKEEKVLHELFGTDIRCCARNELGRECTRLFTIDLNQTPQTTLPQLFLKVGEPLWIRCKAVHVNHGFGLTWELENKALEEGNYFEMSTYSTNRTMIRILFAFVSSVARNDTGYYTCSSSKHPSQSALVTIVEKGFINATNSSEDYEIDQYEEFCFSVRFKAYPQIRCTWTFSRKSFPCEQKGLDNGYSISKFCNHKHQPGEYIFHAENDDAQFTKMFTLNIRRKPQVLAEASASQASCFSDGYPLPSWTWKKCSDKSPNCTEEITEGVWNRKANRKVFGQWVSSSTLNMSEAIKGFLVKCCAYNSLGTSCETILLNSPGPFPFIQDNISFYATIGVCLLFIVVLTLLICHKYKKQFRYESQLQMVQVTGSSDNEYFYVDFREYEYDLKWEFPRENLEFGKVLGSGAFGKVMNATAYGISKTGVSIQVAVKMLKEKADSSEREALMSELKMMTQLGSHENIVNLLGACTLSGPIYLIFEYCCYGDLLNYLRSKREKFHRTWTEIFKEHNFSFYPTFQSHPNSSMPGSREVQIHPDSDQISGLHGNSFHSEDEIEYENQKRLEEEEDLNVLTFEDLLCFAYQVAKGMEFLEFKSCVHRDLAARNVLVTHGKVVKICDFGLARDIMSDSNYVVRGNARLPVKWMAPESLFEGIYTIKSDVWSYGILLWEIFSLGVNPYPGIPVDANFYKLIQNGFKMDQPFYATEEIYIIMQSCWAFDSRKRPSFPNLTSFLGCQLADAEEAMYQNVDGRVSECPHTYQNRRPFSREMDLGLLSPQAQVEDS", "description": "Inhibition of recombinant His-tagged human FLT3 expressed in baculovirus expression system using peptide substrate incubated for 30 mins in presence of ATP by HTRF assay"}, "[4]": {"target": "Receptor-type tyrosine-protein kinase FLT3 (Homo sapiens) (UniProt P36888)", "test": "Inhibition of FLT3 in human MV4-11 cells assessed as reduction in STAT5 phosphorylation at 10 nM incubated for 4 hrs by Western blot analysis", "type": "cell-based"}, "[5]": {"target": "Receptor-type tyrosine-protein kinase FLT3 (Homo sapiens) (UniProt P36888)", "test": "Inhibition of FLT3 in human MV4-11 cells assessed as reduction in Erk1/2 phosphorylation at 0.01 to 1 uM incubated for 4 hrs by Western blot analysis", "type": "cell-based", "details": "dose 0.01-1 µM"}, "[6]": {"test": "AUClast in ICR mouse at 10 mg/kg, iv or po measured up to 1440 mins by LC-MS/MS analysis", "type": "ADME, organism-based", "set-up": "dose 10 mg/kg, time <=1440", "details": "in vivo"}, "[7]": {"test": "Toxicity in BALB/c nu/nu mouse xenografted with human MV4-11 cells assessed as body weight loss at 20 mg/kg, po administered for 21 days", "type": "organism-based", "details": "in vivo, 504 h, time 21 day"}, "[8]": {"target": "T2, Macrophage colony-stimulating factor 1 receptor (Homo sapiens, UniProt P07333)", "T2 sequence (P07333 whole entry)": "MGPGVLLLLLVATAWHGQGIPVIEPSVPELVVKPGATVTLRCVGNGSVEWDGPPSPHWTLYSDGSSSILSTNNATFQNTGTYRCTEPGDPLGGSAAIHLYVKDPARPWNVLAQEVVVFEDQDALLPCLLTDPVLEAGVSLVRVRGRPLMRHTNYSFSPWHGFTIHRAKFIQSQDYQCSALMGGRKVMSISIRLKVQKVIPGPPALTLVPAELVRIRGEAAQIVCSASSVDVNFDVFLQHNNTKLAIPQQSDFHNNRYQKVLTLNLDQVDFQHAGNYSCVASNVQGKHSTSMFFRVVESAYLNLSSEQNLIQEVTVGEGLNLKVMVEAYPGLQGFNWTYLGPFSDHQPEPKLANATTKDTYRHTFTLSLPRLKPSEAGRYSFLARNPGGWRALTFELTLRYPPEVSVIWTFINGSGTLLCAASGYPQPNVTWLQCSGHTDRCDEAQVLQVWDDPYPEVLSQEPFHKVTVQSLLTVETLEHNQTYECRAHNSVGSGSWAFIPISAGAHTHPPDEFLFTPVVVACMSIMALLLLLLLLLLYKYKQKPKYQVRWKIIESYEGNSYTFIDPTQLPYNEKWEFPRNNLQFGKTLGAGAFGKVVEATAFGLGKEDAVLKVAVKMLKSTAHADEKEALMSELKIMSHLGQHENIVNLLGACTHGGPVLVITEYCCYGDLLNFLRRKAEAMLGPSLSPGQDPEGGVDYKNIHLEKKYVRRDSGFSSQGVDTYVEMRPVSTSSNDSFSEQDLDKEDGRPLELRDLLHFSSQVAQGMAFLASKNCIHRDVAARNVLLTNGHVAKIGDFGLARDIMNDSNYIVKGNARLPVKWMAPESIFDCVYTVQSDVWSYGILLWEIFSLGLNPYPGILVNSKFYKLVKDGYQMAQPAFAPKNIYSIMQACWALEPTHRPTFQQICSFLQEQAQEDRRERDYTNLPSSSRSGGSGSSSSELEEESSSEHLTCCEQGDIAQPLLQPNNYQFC", "test": "Inhibition of human FMS in presence of ATP"}, "[9]": {"target": "T3, High affinity nerve growth factor receptor (Homo sapiens, UniProt P04629)", "test": "Inhibition of human TrkA at 100 nM in presence of ATP relative to control"}, "[10]": {"test": "Acute toxicity in ICR female mouse assessed as approximate lethal dose", "details": "in vivo"}, "[11]": {"target": "Vascular endothelial growth factor receptor 3 (Homo sapiens, UniProt P35916)", "test": "Inhibition of human FLT4 in presence of ATP"}, "[12]": {"target": "Cyclin-dependent kinase 2 (Homo sapiens) (UniProt P24941)", "test": "Inhibition of human CDK2 at 100 nM in presence of ATP relative to control"}, "[13]": {"target": "Maternal embryonic leucine zipper kinase (Homo sapiens, UniProt Q14680)", "test": "Inhibition of human MELK at 100 nM in presence of ATP relative to control"}, "[14]": {"target": "T2, Macrophage colony-stimulating factor 1 receptor", "test": "Inhibition of human FMS at 100 nM in presence of ATP relative to control"}, "[15]": {"system": "Receptor-type tyrosine-protein kinase FLT3 (Homo sapiens), P36888 [D835Y]", "test": "Inhibition of human FLT3 D835Y mutant at 100 nM in presence of ATP relative to control"}, "[16]": {"target": "T3, High affinity nerve growth factor receptor", "test": "Inhibition of human TrkA in presence of ATP"}, "[17]": {"system": "MV4-11", "test": "cells", "details": "Homo sapiens, MV4-11, 72 h", "description": "Antiproliferative activity against human MV4-11 cells assessed as cell growth inhibition after 72 hrs by WST assay"}, "[18]": {"system": "MV4-11", "test": "Antitumor activity against human MV4-11 cells xenografted in BALB/c nu/nu mouse assessed as reduction in tumor volume at 20 mg/kg, po administered once daily for 21 days measured twice daily during compound dosing", "type": "functional, organism-based", "details": "time 21.0 day"}, "[19]": {"target": "Platelet-derived growth factor receptor alpha (Homo sapiens) (UniProt P16234)", "test": "Inhibition of human PDGFRa at 100 nM in presence of ATP relative to control"}, "[20]": {"target": "BDNF/NT-3 growth factors receptor (Homo sapiens, UniProt Q16620)", "test": "Inhibition of human TrkB in presence of ATP"}, "[21]": {"target": "Tyrosine-protein kinase Mer (Homo sapiens, UniProt Q12866)", "sequence (Q12866 whole entry)": "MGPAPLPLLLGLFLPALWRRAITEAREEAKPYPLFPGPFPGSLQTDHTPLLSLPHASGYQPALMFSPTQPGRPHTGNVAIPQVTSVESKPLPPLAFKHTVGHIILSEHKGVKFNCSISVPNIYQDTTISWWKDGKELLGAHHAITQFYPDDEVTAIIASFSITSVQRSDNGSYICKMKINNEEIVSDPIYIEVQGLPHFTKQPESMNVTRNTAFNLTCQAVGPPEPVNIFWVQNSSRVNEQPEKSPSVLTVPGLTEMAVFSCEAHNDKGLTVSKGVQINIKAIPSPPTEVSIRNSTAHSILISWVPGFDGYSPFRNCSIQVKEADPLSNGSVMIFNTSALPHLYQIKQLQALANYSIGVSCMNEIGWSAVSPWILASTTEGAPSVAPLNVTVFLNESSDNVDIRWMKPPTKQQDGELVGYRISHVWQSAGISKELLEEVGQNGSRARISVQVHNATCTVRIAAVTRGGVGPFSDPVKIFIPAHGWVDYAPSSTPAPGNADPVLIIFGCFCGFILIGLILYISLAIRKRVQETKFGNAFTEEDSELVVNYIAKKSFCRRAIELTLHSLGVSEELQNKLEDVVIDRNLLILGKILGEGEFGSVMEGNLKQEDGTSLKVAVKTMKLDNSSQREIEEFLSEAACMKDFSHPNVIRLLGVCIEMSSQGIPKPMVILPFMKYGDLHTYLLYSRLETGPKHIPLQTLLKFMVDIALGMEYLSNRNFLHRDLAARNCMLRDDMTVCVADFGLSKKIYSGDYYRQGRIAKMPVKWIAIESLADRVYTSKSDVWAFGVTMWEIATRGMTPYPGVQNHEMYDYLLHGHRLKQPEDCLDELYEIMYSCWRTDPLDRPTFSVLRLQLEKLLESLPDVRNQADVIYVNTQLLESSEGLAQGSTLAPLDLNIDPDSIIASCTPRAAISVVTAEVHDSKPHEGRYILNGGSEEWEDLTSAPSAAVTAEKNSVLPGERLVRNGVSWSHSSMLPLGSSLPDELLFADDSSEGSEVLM", "test": "Inhibition of human MER in presence of ATP"}, "[22]": {"system": "MDA-MB-231", "test": "cells", "details": "Homo sapiens, MDA-MB-231, read-out: INH", "description": "Antiproliferative activity against human MDA-MB-231 cells assessed as cell growth inhibition at 1 uM by WST assay relative to control"}, "[23]": {"system": "HepG2", "test": "cells", "details": "Homo sapiens", "description": "Antiproliferative activity against human HepG2 cells assessed as cell growth inhibition by WST assay"}, "[24]": {"target": "Mast/stem cell growth factor receptor Kit (Homo sapiens) (UniProt P10721)", "test": "Inhibition of human c-KIT at 100 nM in presence of ATP relative to control"}, "[25]": {"target": "T4, Proto-oncogene tyrosine-protein kinase Src (Homo sapiens, UniProt P12931)", "T4 sequence (P12931 2-536 limits assumed)": "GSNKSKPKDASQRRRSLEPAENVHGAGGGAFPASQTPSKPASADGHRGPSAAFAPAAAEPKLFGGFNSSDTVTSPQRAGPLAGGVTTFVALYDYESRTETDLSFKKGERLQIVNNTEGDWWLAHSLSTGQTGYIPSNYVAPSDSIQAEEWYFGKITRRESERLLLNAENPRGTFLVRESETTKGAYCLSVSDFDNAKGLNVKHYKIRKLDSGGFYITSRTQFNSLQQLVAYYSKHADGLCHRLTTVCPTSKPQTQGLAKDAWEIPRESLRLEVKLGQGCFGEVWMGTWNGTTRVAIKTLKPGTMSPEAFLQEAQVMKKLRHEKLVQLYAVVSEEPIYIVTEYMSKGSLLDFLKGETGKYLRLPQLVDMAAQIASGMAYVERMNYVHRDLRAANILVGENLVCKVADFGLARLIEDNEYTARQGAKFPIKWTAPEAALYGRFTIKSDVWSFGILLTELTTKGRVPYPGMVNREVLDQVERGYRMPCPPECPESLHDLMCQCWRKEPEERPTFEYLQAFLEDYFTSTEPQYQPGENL", "test": "Inhibition of human c-SRC in presence of ATP"}, "[26]": {"target": "hERG (KCNH2) (Homo sapiens, UniProt Q12809)", "sequence (Q12809 whole entry)": "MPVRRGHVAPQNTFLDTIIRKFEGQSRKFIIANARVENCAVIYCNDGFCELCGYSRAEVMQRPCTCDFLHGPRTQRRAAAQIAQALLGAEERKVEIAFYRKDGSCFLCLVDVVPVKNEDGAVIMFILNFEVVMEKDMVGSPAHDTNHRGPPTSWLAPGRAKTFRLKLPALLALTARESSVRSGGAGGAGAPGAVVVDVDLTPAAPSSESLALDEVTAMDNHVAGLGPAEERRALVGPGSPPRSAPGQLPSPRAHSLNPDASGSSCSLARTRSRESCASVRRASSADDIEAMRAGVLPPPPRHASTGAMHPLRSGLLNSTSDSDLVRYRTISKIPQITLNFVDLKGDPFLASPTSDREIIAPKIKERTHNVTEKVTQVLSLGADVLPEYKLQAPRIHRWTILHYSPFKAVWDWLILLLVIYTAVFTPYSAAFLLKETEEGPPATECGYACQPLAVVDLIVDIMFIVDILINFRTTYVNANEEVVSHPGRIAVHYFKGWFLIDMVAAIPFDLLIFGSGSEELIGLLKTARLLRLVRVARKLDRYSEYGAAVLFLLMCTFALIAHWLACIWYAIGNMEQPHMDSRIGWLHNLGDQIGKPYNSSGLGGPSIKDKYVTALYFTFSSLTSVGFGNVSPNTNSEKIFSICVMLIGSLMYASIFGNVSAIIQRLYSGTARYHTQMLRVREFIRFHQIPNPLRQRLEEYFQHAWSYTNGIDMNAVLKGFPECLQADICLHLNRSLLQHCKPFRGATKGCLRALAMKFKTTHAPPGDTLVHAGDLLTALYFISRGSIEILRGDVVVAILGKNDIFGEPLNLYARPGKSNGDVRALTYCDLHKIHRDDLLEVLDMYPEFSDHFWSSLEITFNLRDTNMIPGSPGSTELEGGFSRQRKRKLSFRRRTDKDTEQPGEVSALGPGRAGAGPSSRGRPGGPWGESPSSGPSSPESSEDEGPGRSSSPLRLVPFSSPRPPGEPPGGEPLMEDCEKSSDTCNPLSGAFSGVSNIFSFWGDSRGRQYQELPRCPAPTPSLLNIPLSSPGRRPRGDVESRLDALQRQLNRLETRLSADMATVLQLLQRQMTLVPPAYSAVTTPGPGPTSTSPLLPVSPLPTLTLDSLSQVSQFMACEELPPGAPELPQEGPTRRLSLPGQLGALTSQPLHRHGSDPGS", "test": "Inhibition of human ERG at 10 uM relative to control"}, "[27]": {"system": "MOLM-14", "test": "cells", "details": "Homo sapiens", "description": "Antiproliferative activity against human MOLM14 cells harboring ITD mutant assessed as cell growth inhibition by MTT assay"}, "[28]": {"target": "T4, Proto-oncogene tyrosine-protein kinase Src", "test": "Inhibition of human c-SRC at 100 nM in presence of ATP relative to control"}, "[29]": {"target": "Cyclin-dependent kinase 1 (Homo sapiens) (UniProt P06493)", "sequence (P06493 whole entry, looked up)": "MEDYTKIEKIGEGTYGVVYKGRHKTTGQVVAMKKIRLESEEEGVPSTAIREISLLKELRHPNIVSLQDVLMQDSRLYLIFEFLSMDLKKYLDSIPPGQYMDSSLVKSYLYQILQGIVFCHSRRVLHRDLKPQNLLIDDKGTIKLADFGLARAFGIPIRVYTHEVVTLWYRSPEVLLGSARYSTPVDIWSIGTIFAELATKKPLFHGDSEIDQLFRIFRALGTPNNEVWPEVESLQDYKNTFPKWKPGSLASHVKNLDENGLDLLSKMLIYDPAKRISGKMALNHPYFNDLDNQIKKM", "test": "Inhibition of human CDK1 at 100 nM in presence of ATP relative to control"}, "[30]": {"target": "Proto-oncogene tyrosine-protein kinase receptor Ret (Homo sapiens, UniProt P07949)", "sequence (P07949 whole entry)": "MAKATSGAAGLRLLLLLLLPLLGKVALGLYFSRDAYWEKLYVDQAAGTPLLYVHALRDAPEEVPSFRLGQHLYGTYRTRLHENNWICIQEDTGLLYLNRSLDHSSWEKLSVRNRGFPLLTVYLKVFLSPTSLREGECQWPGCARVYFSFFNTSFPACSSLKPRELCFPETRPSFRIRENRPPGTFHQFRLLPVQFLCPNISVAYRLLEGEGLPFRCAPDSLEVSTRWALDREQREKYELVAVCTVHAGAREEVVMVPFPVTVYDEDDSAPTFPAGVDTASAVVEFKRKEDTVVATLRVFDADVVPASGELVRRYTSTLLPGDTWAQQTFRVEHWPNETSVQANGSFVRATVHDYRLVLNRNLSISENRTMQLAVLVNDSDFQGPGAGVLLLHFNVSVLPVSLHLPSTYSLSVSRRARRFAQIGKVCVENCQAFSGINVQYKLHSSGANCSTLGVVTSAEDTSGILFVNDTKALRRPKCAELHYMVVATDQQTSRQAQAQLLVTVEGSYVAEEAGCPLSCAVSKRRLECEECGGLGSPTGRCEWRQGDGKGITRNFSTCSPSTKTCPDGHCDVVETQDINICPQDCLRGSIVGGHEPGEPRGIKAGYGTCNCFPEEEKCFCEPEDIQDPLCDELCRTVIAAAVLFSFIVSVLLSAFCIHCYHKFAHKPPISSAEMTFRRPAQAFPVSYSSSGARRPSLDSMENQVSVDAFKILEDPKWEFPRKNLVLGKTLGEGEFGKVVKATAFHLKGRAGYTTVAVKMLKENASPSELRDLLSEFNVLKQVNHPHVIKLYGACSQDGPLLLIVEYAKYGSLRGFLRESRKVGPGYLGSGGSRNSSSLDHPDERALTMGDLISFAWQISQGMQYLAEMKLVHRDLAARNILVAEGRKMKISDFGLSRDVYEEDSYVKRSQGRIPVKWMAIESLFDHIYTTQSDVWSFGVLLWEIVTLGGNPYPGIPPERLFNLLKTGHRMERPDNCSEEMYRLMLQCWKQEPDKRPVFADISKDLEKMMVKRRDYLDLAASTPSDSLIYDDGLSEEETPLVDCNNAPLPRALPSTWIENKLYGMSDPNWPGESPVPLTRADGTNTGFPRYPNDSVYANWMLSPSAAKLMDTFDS", "test": "Inhibition of human RET in presence of ATP"}},
  "note": "Calls of active or inactive are those of the source. No cut-off for these calls is given here.",
  "data": [
    {"compound": "Cl.O=C1Nc2ccc(F)cc2/C1=C1/Nc2ccccc2/C1=N\\OCCN1CCNCC1", "values": [
      {"measurement": "Kd", "setting": "[1]", "result": "< 0.25", "unit": "nM"},
      {"measurement": "LD50", "setting": "[2]", "result": 2000, "unit": "mg/kg"},
      {"measurement": "IC50", "setting": "[3]", "result": 0.87, "unit": "nM"},
      {"measurement": "inhibition", "setting": "[4]", "result": 100, "unit": "%"},
      {"measurement": "inhibition", "setting": "[5]", "result": "Active"},
      {"measurement": "AUC(0-t) at 24 h", "setting": "[6]", "result": 417, "unit": "ng·h/mL"},
      {"measurement": "Activity", "setting": "[7]", "result": "Non-Toxic"},
      {"measurement": "IC50", "setting": "[8]", "result": 4.2, "unit": "nM"},
      {"measurement": "inhibition", "setting": "[9]", "result": 99, "unit": "%"},
      {"measurement": "ALD50", "setting": "[10]", "result": 2000, "unit": "mg/kg"},
      {"measurement": "IC50", "setting": "[11]", "result": 23.8, "unit": "nM"},
      {"measurement": "inhibition", "setting": "[12]", "result": 43, "unit": "%"},
      {"measurement": "inhibition", "setting": "[13]", "result": 86, "unit": "%"},
      {"measurement": "inhibition", "setting": "[14]", "result": 92, "unit": "%"},
      {"measurement": "inhibition", "setting": "[15]", "result": 99, "unit": "%"},
      {"measurement": "IC50", "setting": "[16]", "result": 6.89, "unit": "nM"},
      {"measurement": "GI50", "setting": "[17]", "result": 1, "unit": "nM"},
      {"measurement": "Activity", "setting": "[18]", "result": "Active"},
      {"measurement": "inhibition", "setting": "[19]", "result": 5, "unit": "%"},
      {"measurement": "IC50", "setting": "[20]", "result": 2.04, "unit": "nM"},
      {"measurement": "IC50", "setting": "[21]", "result": 3.01, "unit": "nM"},
      {"measurement": "inhibition at 1 µM", "setting": "[22]", "result": 8.95, "unit": "%"},
      {"measurement": "GI50", "setting": "[23]", "result": 1100, "unit": "nM"},
      {"measurement": "inhibition", "setting": "[24]", "result": 22, "unit": "%"},
      {"measurement": "IC50", "setting": "[25]", "result": 9.52, "unit": "nM"},
      {"measurement": "inhibition at 10 µM", "setting": "[26]", "result": 21.4, "unit": "%"},
      {"measurement": "GI50", "setting": "[27]", "result": 1.85, "unit": "nM"},
      {"measurement": "inhibition", "setting": "[28]", "result": 87, "unit": "%"},
      {"measurement": "inhibition", "setting": "[29]", "result": 21, "unit": "%"},
      {"measurement": "IC50", "setting": "[30]", "result": 1.21, "unit": "nM"}
    ]}
  ]
}
